Laboratory results taken from patent US20250017907A1, “METHOD FOR PREVENTING AND/OR TREATING LIVER FIBROSIS BY USING 6-METHOXYBENZOXAZOLINONE AND COIX LACHRYMA-JOBI L. EXTRACT COMPRISING 6-METHOXYBENZOXAZOLINONE” (Taichung District Agricultural Research and Extension …, priority 2023, published 2025).

Columns and labels:
[1] = tested on: TAA-induced liver fibrotic C57BL/6J mice; assay: Oxidative stress indicator tests in liver (SOD, CAT, GSH, MDA); format: in vivo; conditions: 6 weeks, vs TAA group
Experimental: (§1) For tests of CX, mice were randomly divided into the following four groups (n=8, per group): (1) NT group, (2) TAA group (200 mg/kg), (3) CX group (CX20, 20 mg/kg), and (4) CX group (CX50, 50 mg/kg). NT group received pure saline, and other groups intraperitoneally injected with TAA dissolved into saline thrice a week. Moreover, NT group and TAA group also received 5% propylene glycol, while CX groups received CX dissolved into 5% propylene glycol (prepared in 0.9% saline) by oral gavage once per day.
To examine the effects of CX on liver fibrosis, this example established a TAA-induced liver fibrotic C57BL/6J mouse model. FIG. 6 is a schematic diagram of animal experiment design in 6-methoxybenzoxazolinone (6-MBOA) (CX) groups. For animal experiments, 6-week-old C57BL/6J mice were randomly divided into four groups including NT, TAA, CX20 (TAA+20 mg/kg CX), CX50 (TAA+50 mg/kg CX). (n=8 per group). Mice were given intraperitoneal injection of TAA thrice a week to induce liver fibrosis; they also received CX or the vehicle by oral gavage once per day. At the end of animal tests, mice were sacrificed at 12 weeks of age. Six-week-old mice were randomly divided into four groups, namely NT, TAA, CX20 and CX50 (FIG. 6). Among these groups, only the NT group was oral gavaged and administered with vehicle, the TAA group was oral gavaged with vehicle and administered with TAA, and the CX groups were oral gavaged with CX and administered with TAA. Oral gavage was performed once a day while intraperitoneal injection was given thrice a week; both oral gavage and intraperitoneal injection were continuously administered for six weeks. After that, the mice were sacrificed, and their liver tissues and serum were collected for subsequent analyses.
The procedure of oxidative stress indicator tests is as follows. The enzyme activity of catalase (CAT) and superoxide dismutase (SOD), the content of malondialdehyde (MDA), and the concentration of glutathione (GSH) in tissue were tested to examine changes in oxidative stress levels in TAA-induced liver fibrotic mice. […] All of the kits were commercial products, the working protocol followed the manufacturer's instructions. Briefly, the liver tissue was homogenized in ice-cold buffer and centrifuged at 4° C., then collected supernatant for analysis, finally, read the absorbance of samples with ELISA reader (TECAN, Switzerland).

[2] = tested on: TAA-induced liver fibrotic C57BL/6J mice; assay: Real-time PCR of liver fibrotic and inflammatory genes; format: in vivo; conditions: CX groups (20 and 50 mg/kg oral, 6 weeks); vs TAA group
Experimental: For tests of adlay extracts, mice were randomly divided into the following seven groups (n=6, per group): (1) No treatment group (NT, normal diet), (2) Thioacetamide group (TAA, 200 mg/kg, normal diet), (3) 10% adlay seed powder (ASP) group, (4) 1% adlay leaf powder (ALP) group, (5) 1% adlay seed polysaccharide (ASPS) group, (6) 0.025% adlay seed ethanolic extract (ASE) group and (7) 0.1% ASE group. NT group received pure saline, and other groups intraperitoneally injected with TAA dissolved into saline thrice a week.
as §1
(§2) The procedure of real-time PCR analysis is as follows. Total RNA was extracted with the Trizol reagent (Ambion, USA) and then reverse-transcribed into cDNA with RevertAid First Strand cDNA Synthesis kit (Thermo Scientific, USA). The PCR amplification was accomplished with SYBR Green PCR Master Mix (Applied Biosystems, USA), and the mRNA expression of the gene was normalized to GAPDH. All primers were obtained from Genomics (Genomics, Taiwan). Rat primer sequences are used for real-time PCR of HSC-T6 cells, and mouse primer sequences are used for real-time PCR of C57BL/6J mice.

[3] = tested on: TGF-β1-activated HSC-T6 cells; assay: Wound healing assay; format: cell-based, rat
Experimental: The procedure of wound healing assay is as follows. HSC-T6 cells were seeded on the 6-well plates for 24 h, scraped monolayer cells with a 200 μL pipette tip and washed off non-adherent cells by PBS, changed serum-free medium for 24 h, then treated with TGF-β1 and CX for 0, 24, and 48 h.

[4] = tested on: TAA-induced liver fibrotic C57BL/6J mice; assay: Serum TGF-β1 ELISA; format: in vivo; conditions: CX groups (20 and 50 mg/kg oral, 6 weeks); vs TAA group
Experimental: as §1
To examine the effects of CX on liver fibrosis, this example established a TAA-induced liver fibrotic C57BL/6J mouse model. FIG. 6 is a schematic diagram of animal experiment design in 6-methoxybenzoxazolinone (6-MBOA) (CX) groups. For animal experiments, 6-week-old C57BL/6J mice were randomly divided into four groups including NT, TAA, CX20 (TAA+20 mg/kg CX), CX50 (TAA+50 mg/kg CX). (n=8 per group). […]
The procedure of TGF-β1 enzyme-linked immunosorbent assay (ELISA) is as follows. The level of TGF-β1 was detected in serum by using commercial mouse ELISA kits (Invitrogen, USA) and the working procedure was followed a standard sandwich ELISA protocol. […] After reacted with stop solution, immediately measured the color intensity at 450 nm by ELISA reader (TECAN, Switzerland).

[5] = tested on: TGF-β1-activated HSC-T6 cells; assay: Real-time PCR of inflammatory factors; format: cell-based, rat; conditions: HSC-T6, TGF-β1 10 ng/mL, 24 h
Excerpt: as §2
The procedure of cell cultures is as follows. HSC-T6 cell is an immortalized cell line isolated from transformed SV40 large T-antigen transformed primary stellate cells of male Sprague-Dawley rats. HSC-T6 cells were maintained in Dulbecco's Modified Eagle Medium (DMEM, Sigma-Aldrich, USA) containing 8% fetal bovine serum (FBS, HyClone, USA), 100 U/mL of penicillin, and 100 μg/mL of streptomycin (Gibco, USA).
For hepatic stellate cell (HSC) activation, cells were cultured for 24 h and then replaced with serum-free medium for 24 h, after that, treated with transforming growth factor beta 1 (TGF-β1) (10 ng/mL) in the presence or absence of CX (10-100 μM) or adlay leaf, root, and seed extracts (25 and 50 μg/mL) for 24 h, or 30 min for intracellular signal pathways.

Structure (SMILES): COc1ccc2[nH]c(=O)oc2c1 [CX, 6-methoxybenzoxazolinone]
- liver CAT activity ([1]; CX20: 20 mg/kg oral): increased
- liver GSH content ([1]; CX20: 20 mg/kg oral): increased
- liver MDA content ([1]; CX20: 20 mg/kg oral): decreased
- liver CAT activity ([1]; CX50: 50 mg/kg oral): increased
- liver GSH content ([1]; CX50: 50 mg/kg oral): increased
- liver MDA content ([1]; CX50: 50 mg/kg oral): decreased
- liver SOD activity ([1]; CX50: 50 mg/kg oral): significantly increased
- TAA-induced downregulation of liver IL-10 mRNA level [2]: significantly decreased
- TAA-induced upregulation of liver COL1A1 mRNA [2]: significantly decreased
- TAA-induced upregulation of liver IL-6 mRNA level [2]: significantly decreased
- TAA-induced upregulation of liver TNF-α mRNA level [2]: significantly decreased
- TAA-induced upregulation of liver α-SMA mRNA [2]: significantly decreased
- TGF-β1-induced wound closure of 24 h ([3]; HSC-T6, CX at a dose of 100 μM): significantly reduced
- TGF-β1-induced wound closure of 48 h ([3]; HSC-T6, CX at a dose of 20-100 μM): reduced
- upregulation of TGF-β1 in serum caused by TAA (ELISA) [4]: significantly reduced
- TGF-β1-induced IL-6 mRNA level ([5]; CX 10, 20, 50, 100 μM): dose-dependently decreased
- TGF-β1-induced TNF-α mRNA level ([5]; CX 10, 20, 50, 100 μM): dose-dependently decreased
- IL-10 mRNA level ([5]; CX at the highest dose (100 μM)): significantly increased
